Patent US20260225970A1, “SOIL C[…] USE THEREOF” (priority 2020, published 2026)
Like-named read-outs stand apart in the source and are kept apart here.

Test system: Nitrosomonas europaea IF014298
Assay: Bioluminescence nitrification inhibition assay using a nitrifying bacterium in vitro (luxAB-introduced Nitrosomonas europaea)
Assay type: cell-based
Conditions: for IC80: IF014298, 0.5 h, read-out: Nitrification inhibitory activity ED80; for nitrification inhibitory activity: result in words, conclusion from the bioluminescence assay (Table 2)
Experimental: The nitrification inhibitory action of 2,7-dimethoxy-1,4-naphthoquinone was analyzed using a nitrifying bacterium in vitro (T. Iizumi, M. Mizumoto, K. Nakamura, A Bioluminescence assay using Nitrosomonas europaea for rapid and sensitive detection of nitrification inhibitors (1998) Appl. Environment. Microbiol., 64, 3656-3662).
A nitrifying bacterium (Nitrosomonas europaea IF014298) into which a luciferase gene derived from a bacterium (luxAB) had been introduced was aerobically cultured at 30° C. for 7 to 9 days in a P culture medium containing kanamycin (25 mg/l L). The obtained nitrifying bacterium was washed and then suspended in a fresh P culture medium to prepare a nitrifying bacterial suspension. This nitrifying bacterial suspension was allowed to stand in a dark place for 30 minutes or more before the experiment.
Here, the composition of the P culture medium consisted of 2.5 g of (NH4)2SO4, 0.7 g of KH2PO4, 13.5 g of Na2HPO4, 0.5 g of NaHCO3, 100 mg of MgSO4/7H2O, 5 mg of CaCl2/2H2O, 1 mg of Fe-EDTA, and 1 L of water, and the pH thereof was 8.0.
After mixing in vitro an aqueous solution of the above-described nitrifying bacterial suspension, consisting of 0.25 mL of the above-described nitrifying bacterial suspension and 0.2 mL of water, with 0.01 mL of a sample solution of 2,7-dimethoxy-1,4-naphthoquinone at various concentrations, the amount of bioluminescence associated with the nitrification reaction during culturing at 15° C. for 30 minutes was measured using a luminometer (manufactured by Turner Designs, Inc., model name: TD20/20), whereby the nitrification action was evaluated.
The amount of bioluminescence associated with the nitrification reaction decreases in a case where a substance having a nitrification inhibitory action is present in the sample solution. Therefore, the amount of luminescence in a case where each of the sample solutions of 2,7-dimethoxy-1,4-naphthoquinone at various concentrations was added to the aqueous solution of the nitrifying bacterial suspension was divided by the amount of luminescence in the case of only using the aqueous solution of the bacterial cell suspension without the sample solution being added, thereby obtaining a value as the nitrification inhibition rate. The results of measuring the nitrification inhibitory activity of the present compound at various concentrations are shown in FIG. 5.
In addition, the nitrification inhibitory activity of the 1,4-naphthoquinone derivative was measured in the same manner. In Table 2, R^1 to R^6 are each R^1 to R^6 in Formula (1), respectively.

[1] = bioluminescence during culturing at 15° C. for 30 minutes, luxAB Nitrosomonas europaea suspension in P culture medium

O=C1C=CC(=O)c2ccccc21 [1,4-Naphthoquinone]
IC80 [1]: 4.4 µM | nitrification inhibitory activity: have a nitrification inhibitory activity

O=C1C(Cl)=C(Cl)C(=O)c2ccccc21 [2,3-Dichloro-1,4-naphthoquinone]
IC80 [1]: 2.2 µM | nitrification inhibitory activity: have a nitrification inhibitory activity

O=C1C(Cl)=C(Cl)C(=O)c2c(O)ccc(O)c21 [2,3-Dichloro-5,8-dihydroxy-1,4-naphthoquinone]
IC80 [1]: 0.9 µM | nitrification inhibitory activity: have a nitrification inhibitory activity

NC1=C(Cl)C(=O)c2ccccc2C1=O [2-Amino-3-chloro-1,4-naphthoquinone]
IC80 [1]: 13.3 µM | nitrification inhibitory activity: have a nitrification inhibitory activity

O=C1C=C(Cl)C(=O)c2ccccc21 [2-Chloro-1,4-naphthoquinone]
IC80 [1]: 4 µM | nitrification inhibitory activity: have a nitrification inhibitory activity

O=C1C=C(O)C(=O)c2ccccc21 [2-Hydroxy-1,4-naphthoquinone]
IC80 [1]: > 100 µM | nitrification inhibitory activity: does not have a nitrification inhibitory activity

COC1=CC(=O)c2ccccc2C1=O [2-Methoxy-1,4-naphthoquinone]
IC80 [1]: 8.9 µM | nitrification inhibitory activity: have a nitrification inhibitory activity

CC1=CC(=O)c2ccccc2C1=O [2-Methyl-1,4-naphthoquinone]
IC80 [1]: 4.4 µM | nitrification inhibitory activity: have a nitrification inhibitory activity

O=C1C=CC(=O)c2c(O)ccc(O)c21 [5,8-Dihydroxy-1,4-naphthoquinone]
IC80 (Nitrosomonas europaea): 2.2 µM | nitrification inhibitory activity: have a nitrification inhibitory activity

O=C1C=CC(=O)c2c(O)cccc21 [5-Hydroxy-1,4-naphthoquinone]
IC80 [1]: 1.1 µM | nitrification inhibitory activity: have a nitrification inhibitory activity

CC1=CC(=O)c2c(O)cccc2C1=O [5-Hydroxy-2-methyl-1,4-naphthoquinone]
IC80 [1]: 0.5 µM | nitrification inhibitory activity: have a nitrification inhibitory activity

Cc1ccc2c(c1)C(=O)C=CC2=O [6-Methyl-1,4-naphthoquinone]
IC80 [1]: 2.2 µM | nitrification inhibitory activity: have a nitrification inhibitory activity

COC1=CC(=O)c2ccc(OC)cc2C1=O [Zeanone, 2,7-dimethoxy-1,4-naphthoquinone]
IC80 [1]: 16.1 µM | ED50 (nitrification inhibition, dose response curve of FIG. 5, second value printed as ED50 in the same sentence, 15° C., 30 minutes): 16.1 µM | nitrification inhibitory activity (listed as 2,7-dimethoxy-1,4-naphthoquinone): have a nitrification inhibitory activity | nitrification inhibitory activity (listed as zeanone): excellent nitrification inhibitory action
